Laboratory results taken from patent US11453660B2, “Androgen receptor and glucocorticoid receptor modulators” (ONCOSTELLAE, S.L., priority 2017, dated 2022).
Where a chain is given by its changes, count along the chain named.

How the values were obtained:
Rat Androgen Receptor = target: T1, Rat Androgen Receptor (Rattus norvegicus, UniProt P15207); assay: Rat Androgen Receptor Binding (polarscreen AR competitor assay, fluorescence polarization); details: displacement of Fluormone AL Green, 4 hours at RT, read-out: AR rat-fluorimetric
T1 construct: purchased Life Technologies A15880
T1 sequence (P15207 646-902 limits assumed): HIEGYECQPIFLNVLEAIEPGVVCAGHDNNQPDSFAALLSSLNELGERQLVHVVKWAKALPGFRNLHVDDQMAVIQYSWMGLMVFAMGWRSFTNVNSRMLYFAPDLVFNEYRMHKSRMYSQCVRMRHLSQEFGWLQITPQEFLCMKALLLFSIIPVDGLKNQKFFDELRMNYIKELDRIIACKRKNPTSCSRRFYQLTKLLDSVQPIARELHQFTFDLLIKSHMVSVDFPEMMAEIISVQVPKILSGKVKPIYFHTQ
How it was run: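 Fluorescence-polarization competition of Fluormone AL Green binding to rat androgen receptor; compounds screened in duplicate at 1 and 10 μM, 4 h at RT, read at λexc 485/λem 535 nm. IC50 from 1:10 dilution series, 10 μM to 0.1 nM, in 1× buffer.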

human androgen receptor = target: T2, human androgen receptor (Homo sapiens, UniProt P10275, T878A); assay: Human Androgen Receptor Binding (radioligand binding, LnCap prostate cancer cell line); details: LnCap cells, displacement of [^3H]-methyltrienolone, 2 hours at 37° C.; read-out: AR LNCaP
T2 construct: endogenously expressed human androgen receptor using the LnCap prostate cancer cell line; endogenous in cells; host or cells: LNCaP prostate cancer cell line (whole cells)
T2 sequence (P10275 1-920 T878A): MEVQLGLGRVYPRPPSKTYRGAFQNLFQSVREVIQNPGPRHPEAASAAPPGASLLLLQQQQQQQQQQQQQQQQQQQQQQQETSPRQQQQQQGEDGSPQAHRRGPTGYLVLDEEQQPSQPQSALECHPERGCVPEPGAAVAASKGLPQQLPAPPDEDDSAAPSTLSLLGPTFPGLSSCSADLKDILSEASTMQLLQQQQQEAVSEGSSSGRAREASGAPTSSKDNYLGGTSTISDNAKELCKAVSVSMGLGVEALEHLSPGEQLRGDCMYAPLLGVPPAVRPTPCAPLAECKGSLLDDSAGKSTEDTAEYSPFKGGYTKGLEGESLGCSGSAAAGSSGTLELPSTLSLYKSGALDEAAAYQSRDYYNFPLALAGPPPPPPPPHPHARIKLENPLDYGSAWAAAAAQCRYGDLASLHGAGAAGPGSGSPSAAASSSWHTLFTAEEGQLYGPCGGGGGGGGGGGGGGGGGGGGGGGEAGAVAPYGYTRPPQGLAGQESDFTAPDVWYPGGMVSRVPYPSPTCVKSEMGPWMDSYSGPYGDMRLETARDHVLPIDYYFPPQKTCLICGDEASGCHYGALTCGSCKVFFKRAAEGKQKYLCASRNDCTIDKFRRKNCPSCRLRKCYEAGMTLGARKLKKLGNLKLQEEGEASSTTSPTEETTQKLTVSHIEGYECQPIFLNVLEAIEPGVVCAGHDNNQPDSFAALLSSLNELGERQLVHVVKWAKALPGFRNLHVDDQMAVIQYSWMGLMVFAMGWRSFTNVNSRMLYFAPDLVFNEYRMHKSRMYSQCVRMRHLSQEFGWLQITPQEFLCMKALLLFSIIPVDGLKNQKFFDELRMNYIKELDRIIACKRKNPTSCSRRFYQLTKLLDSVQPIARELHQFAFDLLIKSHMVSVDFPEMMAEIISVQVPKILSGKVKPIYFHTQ
How it was run: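 Whole-cell displacement of [3H]-methyltrienolone from endogenous AR (T878A) in LnCap cells, in RPMI with 0.1% BSA and triamcinolone acetonide. Compounds 10 μM to 0.1 nM in 1:10 steps, 2 h at 37 °C; cells washed, SDS-lysed, bound radioactivity by scintillation counting for IC50.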

[1] = target: T3, Human Glucocorticoid Receptor (Homo sapiens, UniProt P04150); assay: Competition Binding in IM-9 Human Glucocorticoid Receptor (GR IM-9); details: cytosol from IM-9 cell line, 1.5 nM [3H]-Dexamethasone, 4° C. for 6 hours
T3 construct: endogenous in cells; host or cells: cytosol from IM-9 cell line
T3 sequence (P04150 1-777): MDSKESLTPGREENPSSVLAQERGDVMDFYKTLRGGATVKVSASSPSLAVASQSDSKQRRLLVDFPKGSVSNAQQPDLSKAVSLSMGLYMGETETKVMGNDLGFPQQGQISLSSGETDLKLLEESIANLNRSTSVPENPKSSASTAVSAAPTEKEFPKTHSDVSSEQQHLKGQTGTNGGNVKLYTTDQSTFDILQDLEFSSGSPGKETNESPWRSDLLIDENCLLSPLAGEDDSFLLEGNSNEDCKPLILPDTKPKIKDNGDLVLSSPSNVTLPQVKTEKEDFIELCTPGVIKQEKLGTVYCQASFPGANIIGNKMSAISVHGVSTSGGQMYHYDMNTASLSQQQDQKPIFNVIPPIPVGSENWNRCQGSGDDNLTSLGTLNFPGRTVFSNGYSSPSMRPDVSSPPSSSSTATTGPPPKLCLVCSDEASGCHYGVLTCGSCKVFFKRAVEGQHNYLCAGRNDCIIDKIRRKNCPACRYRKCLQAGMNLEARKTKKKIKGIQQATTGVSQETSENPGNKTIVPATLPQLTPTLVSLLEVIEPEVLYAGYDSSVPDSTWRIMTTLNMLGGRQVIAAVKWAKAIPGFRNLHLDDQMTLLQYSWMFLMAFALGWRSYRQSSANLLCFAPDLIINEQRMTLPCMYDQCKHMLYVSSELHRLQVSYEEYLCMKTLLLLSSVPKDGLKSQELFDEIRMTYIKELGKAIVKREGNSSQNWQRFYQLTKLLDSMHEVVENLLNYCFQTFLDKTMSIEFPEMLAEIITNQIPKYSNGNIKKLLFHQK
How it was run: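 Radioligand competition using 100 μg IM-9 cell cytosol and 1.5 nM [3H]-dexamethasone, incubated 6 h at 4° C in TES/molybdate buffer, pH 7.4. Filtration on PEI-treated GF/B filters, scintillation counting; nonspecific binding defined with 10 μM triamcinolone.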

AR-Receptor = target: T4, AR-Receptor (Homo sapiens, UniProt P10275); assay: Functional Assay AR-Receptor (MDA-MB-453 cells, luciferase); type: cell-based; details: antagonist effect in the presence of DHT 1 nM, 24 h, luciferase luminescence, read-out: AR antag KB
T4 sequence (P10275 1-920 Q868H): T2 sequence (P10275 1-920 T878A) with Q868H, A878T
Method: Functional Assay AR-Receptor
MDA-MB-453 cells were cultured in DMEM (ATCC, ref 30-2002), 10% FBS, 1% penicillin, 1% streptomycin, 75 μg/ml gentamycin.
The day before performing assay, the cells were trypsinized and seeded in a 384-well plate (Greiner, ref 781098) (8000 cells/well) in 50 μl of complete culture medium. Cells were stores at 37° C. in a 5% CO2 atmosphere overnight.
The medium was replaced by 50 μl complete growth medium with 0.1% FBS. Compounds were dispensed with Echo 550 (Labcyte) and incubated for 24 h at 37° C. in a 5% CO2 atmosphere. Antagonist effect was measured in the presence of DHT 1 nM.
After incubation, assay medium removed and 20 μl of 1× Promega lysis buffer were added to each well. The plate was incubated 15 minutes at RT and quick-frozen to −80° C. and the thaw to room temperature. 50 μl of luciferase substrate (E4550, Promega) were added to each well and luminescence (integration time 1000 msec) was read in an EnSpire multilabel reader (Perkin Elmer).

IC50 (Rat Androgen Receptor) [nM]	IC50 (human androgen receptor) [nM]	IC50 [1] [nM]	Kb (AR-Receptor) [nM]	Compound
< 100	< 100	< 100	–	COC(=O)C1=C(C2CC2)NC(C)=C(C(C)=O)C1c1csc2ccc(F)cc12 (centres unmarked) [Example J22, Methyl 5-acetyl-2-cyclopropyl-4-(5-fluorobenzo[b]thiophen-3-yl)-6-methyl-1,4-dihydropyridine-3-carboxylate]
–	–	–	100 to 1000	CC(=O)C1=C(C)NC(C2CC2)=C(C(=O)OCc2ccncc2)C1c1csc2ccc(Cl)cc12 (centres unmarked) [Example J34, Pyridin-4-ylmethyl 5-acetyl-4-(5-chlorobenzo[b]thiophen-3-yl)-2-cyclopropyl-6-methyl-1,4-dihydropyridine-3-carboxylate]
–	–	–	100 to 1000	CC(=O)C1=C(C)NC(C)=C(C(=O)OCc2ccc(-c3ccncc3)nc2)C1c1csc2ncccc12 (centres unmarked) [Example L9, [2,4′-bipyridin]-5-ylmethyl 5-acetyl-2,6-dimethyl-4-(thieno[2,3-b]pyridin-3-yl)-1,4-dihydropyridine-3-carboxylate]
–	–	–	100 to 1000	Benzyl 5-acetyl-4-(7-(methoxycarbonyl)benzo[b]thiophen-3-yl)-2,6-dimethyl-1,4-dihydropyridine-3-carboxylate [Example J38]

The remaining lines, values behind:

Compound	IC50 (Rat Androgen Receptor) [nM]	IC50 (human androgen receptor) [nM]	IC50 [1] [nM]	Kb (AR-Receptor) [nM]
COC(=O)C1=C(C(F)(F)F)NC(C)=C(C(C)=O)C1c1csc2ccccc12 (centres unmarked) [Example C14, Methyl 5-acetyl-4-(benzo[b]thiophen-3-yl)-6-methyl-2-(trifluoromethyl)-1,4-dihydropyridine-3-carboxylate]	100 to 1000	< 100	100 to 1000	–
CC(=O)C1=C(C)NC(C)=C(C(=O)OCc2cccnc2)C1c1csc2ccc(F)cc12 (centres unmarked) [Example C57, Pyridin-3-ylmethyl 5-acetyl-4-(5-fluorobenzo[b]thiophen-3-yl)-2,6-dimethyl-1,4-dihydropyridine-3-carboxylate]	–	–	–	100 to 1000
CC(=O)C1=C(C)NC(C)=C(C(=O)OCc2cccnc2)C1c1csc2ccc(Cl)cc12 (centres unmarked) [Example C60, Pyridin-3-ylmethyl 5-acetyl-4-(5-chlorobenzo[b]thiophen-3-yl)-2,6-dimethyl-1,4-dihydropyridine-3-carboxylate]	–	–	–	100 to 1000
CC(=O)C1=C(C)NC(C)=C(C(=O)OCc2cccnc2)C1c1csc2ncccc12 (centres unmarked) [Example C61, Pyridin-3-ylmethyl 5-acetyl-2,6-dimethyl-4-(thieno[2,3-b]pyridin-3-yl)-1,4-dihydropyridine-3-carboxylate]	–	–	≥ 1000	100 to 1000
CC(=O)C1=C(C)NC(C)=C(C(=O)OCc2ccncc2)C1c1csc2ccc(Cl)cc12 (centres unmarked) [Example C62, Pyridin-4-ylmethyl 5-acetyl-4-(5-chlorobenzo[b]thiophen-3-yl)-2,6-dimethyl-1,4-dihydropyridine-3-carboxylate]	–	–	–	100 to 1000
CC(=O)C1=C(C)NC(C)=C(C(=O)OCc2ccncc2)C1c1csc2ncccc12 (centres unmarked) [Example C64, Pyridin-4-ylmethyl 5-acetyl-2,6-dimethyl-4-(thieno[2,3-b]pyridin-3-yl)-1,4dihydropyridine-3-carboxylate]	–	–	≥ 1000	100 to 1000
CC(=O)C1=C(C)NC(C)=C(C(=O)OCc2ccc(Cl)nc2)C1c1csc2ncccc12 (centres unmarked) [Example C74, (6-chloropyridin-3-yl)methyl 5-acetyl-2,6-dimethyl-4-(thieno[2,3-b]pyridin-3-yl)-1,4-dihydropyridine-3-carboxylate]	–	–	100 to 1000	≥ 1000
CC(=O)C1=C(C)NC(C)=C(C(=O)OCc2cccc(N3CCOCC3)c2)C1c1csc2ncccc12 (centres unmarked) [Example C75, 3-morpholinobenzyl 5-acetyl-2,6-dimethyl-4-(thieno[2,3-b]pyridin-3-yl)-1,4-dihydropyridine-3-carboxylate]	–	–	100 to 1000	≥ 1000
COC(=O)C1=C(N)NC(C)=C(C(C)=O)C1c1csc2ccccc12 (centres unmarked) [Example D1, Methyl 5-acetyl-2-amino-4-(benzo[b]thiophen-3-yl)-6-methyl-1,4-dihydropyridine-3-carboxylate]	< 100	100 to 1000	≥ 1000	–
